One assay deals with Culex quinquefasciatus. Conditions: electrophysiology test, reported in a published article; cited from earlier work.
The subject of assay [1] is mosquitoes. The assay can be described thus: Field trap catch, Hock Model 1012 traps: CO2 plus 1,5Z-octadien-3-ol vs CO2 alone (Example 1). Type of assay: in vivo. From the text: (§1) Although, as stated above, this invention may be employed with any suitable trap or system, the invention has been tested and employed in a trap or system as described hereinafter. Mosquito traps Model 1012 manufactured by John W. Hock Company in Gainesville, Fla. were used in these tests. The traps use a stream of CO2 directed in the vicinity of a collection bag, with a fan used to blow mosquitoes into the bag. The light supplied to the trap was turned off. The traps were spaced 65-70 feet apart at the edge of a wetland in Danbury, Conn., at least 25 feet from any buildings. The 1,5-octadien-3-ol component was incorporated into a wax lure of the type manufactured by BioSensory, Inc. and placed near a stream of CO2 which was being released at a rate of approximately 150 ml/minute. The traps were operated from approximately 4:00 PM until 9:00 AM the next day. Daytime temperatures were approximately 70-75° F. during the trials.
To establish a baseline control the Hock traps with just CO2, and no added 1,5-octadien-3-ol component, were operated in the two areas on three days. The trap in area 1 (Trap A) caught 32 of the mosquitoes caught, and the trap in area 2 (Trap B) caught 23 of the mosquitoes caught. […]

Assay [2] deals with mosquitoes. Put plainly: Field trap catch, Hock traps: r-1-octen-3-ol with or without r-1,5Z-octadien-3-ol (Example 2). Type of assay: in vivo. Conditions: for mosquitoes caught: Traps A and B, twelve day test period, attractant in 2 ml diethyl phthalate, 0.04 g r-1,5Z-octadien-3-ol tested together with 0.2 g r-1-octen-3-ol, r-1-octen-3-ol alone at 2 g.
Text: as §1
This test was conducted over a twelve-day period. The test was conducted to determine if 1,5-octadien-3-ol increases the trap catch of mosquitoes when added to a trap already containing the known attractant r-1-octen-3-ol. Traps A in area 1 and B in area 2, as described in Example 1, were employed. Both traps A and B were tested with (1) 0.2 g 100% r-1-octen-3-ol+0.04 g r-1,5Z-octadien-3-ol. in 2 ml diethyl phthalate, and (2) with 2 g 100% r-1-octen-3-ol in 2 ml diethyl phthalate (i.e., with no 1,5Z-octadien-3-ol present). Over the twelve day test period the traps with the 1,5z-octadien-3-ol present caught 239 mosquitoes and the traps without the 1,5Z-octadien-3-ol present caught 221 mosquitoes. Thus, the presence of the 1,5Z-octadien-3-ol increased the catch of mosquitoes by 8%.

Consider 4 compounds from patent US8349310B2, “Attractant compositions and method for attracting biting insects” (Bedoukian Research, Inc., priority 2007, dated 2013).

Consider `C=CC(O)CC=CCC` (stereo not drawn) [1,5-octadien-3-ol], for which, in the assay with Culex quinquefasciatus, the “ability to attract mosquitoes” value is reported as “confirmed”.
For the compound `C=CC(O)C/C=C\CC` (stereo not drawn) [1,5Z-octadien-3-ol], the mosquitoes caught in the assay with mosquitoes [1] (Trap A (area 1), compound in trap plus 150 ml/minute CO2, four day test period, Trap B with CO2 only caught 35) is given as 84 mosquitoes. The “catch ratio Trap A to Trap B” value in the assay with mosquitoes [1] (Trap A with compound plus CO2 vs Trap B with CO2 only, four days, baseline catch ratio 1.4 with CO2 only in both traps) turned out to be 2.4.
As to `C=C[C@H](O)C/C=C\CC` [r-1,5Z-octadien-3-ol], in the assay with mosquitoes [2], the mosquitoes caught is on record as 239 mosquitoes. The “increase of the catch of mosquitoes” value with mosquitoes [2] (r-1-octen-3-ol plus r-1,5Z-octadien-3-ol vs r-1-octen-3-ol alone, twelve days) is reported as 8%.
For `C=C[C@H](O)CCCCC` [r-1-octen-3-ol, reference compound], the mosquitoes caught in the assay with mosquitoes [2] came out at 221 mosquitoes.
